Target: T1, Interleukin-1 receptor-associated kinase 4 (Homo sapiens, UniProt Q9NWZ3)
T1 sequence (Q9NWZ3 whole entry): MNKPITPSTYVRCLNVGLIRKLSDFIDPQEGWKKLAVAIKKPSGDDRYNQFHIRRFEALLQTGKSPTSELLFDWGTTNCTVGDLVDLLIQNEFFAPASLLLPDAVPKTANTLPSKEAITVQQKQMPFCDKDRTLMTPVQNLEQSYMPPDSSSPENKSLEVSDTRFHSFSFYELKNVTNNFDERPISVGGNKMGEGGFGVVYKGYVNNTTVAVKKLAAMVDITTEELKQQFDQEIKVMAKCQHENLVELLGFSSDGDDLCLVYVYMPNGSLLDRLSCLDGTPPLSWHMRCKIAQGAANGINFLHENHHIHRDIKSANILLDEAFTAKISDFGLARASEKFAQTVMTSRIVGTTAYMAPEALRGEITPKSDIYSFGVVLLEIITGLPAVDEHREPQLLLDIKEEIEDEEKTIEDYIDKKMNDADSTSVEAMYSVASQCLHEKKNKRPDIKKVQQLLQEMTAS
Test: Inhibition of recombinant human full length his-tagged IRAK4 expressed in insect cells using KKARFSRFAGSSPSQSSMVAR as peptide substrate preincubated for 15 mins followed by substrate addition and measured after 2 hrs in presence of ATP by LC-MS/MS analysis

## COc1cc2nn([C@H]3CC[C@H](n4ccnc4C(C)O)CC3)cc2cc1C(=O)Nc1cccn(C)c1=O (stereo partly specified)
  IC50: 0.5 nM

Source: ChEMBL document CHEMBL5390323, “Novel IRAK4 Inhibitors for Treating Asthma, COPD, Cancer, Autoinflammatory Diseases, and Autoimmune Diseases” (ACS Med Chem Lett, 2023)
